Legend:
Type in all cases: functional
HL-60(TB) = assay: Anticancer activity against human HL-60(TB) cells assessed as cell growth at 10 umol/L incubated for 48 hrs by SRB assay relative to control; settings: HL-60, 48 h, dose 10 µmol/L, read-out: Activity
HT-29 = assay: Anticancer activity against human HT-29 cells assessed as cell growth at 10 umol/L incubated for 48 hrs by SRB assay relative to control; settings: HT-29, 48 h, dose 10 µmol/L, read-out: Activity
MDA-MB-468 = assay: Anticancer activity against human MDA-MB-468 cells assessed as cell growth at 10 umol/L incubated for 48 hrs by SRB assay relative to control; settings: MDA-MB-468, 48 h, dose 10 µmol/L, read-out: Activity
NCI-H322M = assay: Anticancer activity against human NCI-H322M cells assessed as cell growth at 10 umol/L incubated for 48 hrs by SRB assay relative to control; settings: dose 10 µmol/L, read-out: Activity
NCI-H460 = assay: Anticancer activity against human NCI-H460 cells assessed as cell growth at 10 umol/L incubated for 48 hrs by SRB assay relative to control; settings: NCI-H460, 48 h, dose 10 µmol/L, read-out: Activity
SK-MEL-5 = assay: Anticancer activity against human SK-MEL-5 cells assessed as cell growth at 10 umol/L incubated for 48 hrs by SRB assay relative to control; settings: SK-MEL-5, 48 h, dose 10 µmol/L, read-out: Activity
RPMI-8226 = assay: Anticancer activity against human RPMI-8226 cells assessed as cell growth at 10 umol/L incubated for 48 hrs by SRB assay relative to control; settings: RPMI-8226, 48 h, dose 10 µmol/L, read-out: Activity
SF-295 = assay: Anticancer activity against human SF-295 cells assessed as cell growth at 10 umol/L incubated for 48 hrs by SRB assay relative to control; settings: SF-295, 48 h, dose 10 µmol/L, read-out: Activity
SK-OV-3 = assay: Anticancer activity against human SK-OV-3 cells assessed as cell growth at 10 umol/L incubated for 48 hrs by SRB assay relative to control; settings: SK-OV-3, 48 h, dose 10 µmol/L, read-out: Activity
A549 = assay: Anticancer activity against human A549 cells assessed as cell growth at 10 umol/L incubated for 48 hrs by SRB assay relative to control; settings: A549, 48 h, dose 10 µmol/L, read-out: Activity
Malme-3M = assay: Anticancer activity against human Malme-3M cells assessed as cell growth at 10 umol/L incubated for 48 hrs by SRB assay relative to control; settings: dose 10 µmol/L, read-out: Activity
K562 [1] = assay: Induction of cell cycle arrest in human K562 cells at G1 phase at 0.5 uM incubated for 3 days by RNase/PI staining based flow cytometry (reference value: 50 %); settings: time 3 day
MOLT-4 = assay: Anticancer activity against human MOLT-4 cells assessed as cell growth at 10 umol/L incubated for 48 hrs by SRB assay relative to control; settings: MOLT-4, 48 h, dose 10 µmol/L, read-out: Activity
SN12C = assay: Anticancer activity against human SN12C cells assessed as cell growth at 10 umol/L incubated for 48 hrs by SRB assay relative to control; settings: dose 10 µmol/L, read-out: Activity
Hs-578T = assay: Anticancer activity against human Hs-578T cells assessed as cell growth at 10 umol/L incubated for 48 hrs by SRB assay relative to control; settings: dose 10 µmol/L, read-out: Activity
MCF7 = assay: Anticancer activity against human MCF7 cells assessed as cell growth at 10 umol/L incubated for 48 hrs by SRB assay relative to control; settings: MCF7, 48 h, dose 10 µmol/L, read-out: Activity
ACHN = assay: Anticancer activity against human ACHN cells assessed as cell growth at 10 umol/L incubated for 48 hrs by SRB assay relative to control; settings: dose 10 µmol/L, read-out: Activity
KM12 = assay: Anticancer activity against human KM12 cells assessed as cell growth at 10 umol/L incubated for 48 hrs by SRB assay relative to control; settings: KM12, 48 h, dose 10 µmol/L, read-out: Activity
SF-268 = assay: Anticancer activity against human SF-268 cells assessed as cell growth at 10 umol/L incubated for 48 hrs by SRB assay relative to control; settings: SF-268, 48 h, dose 10 µmol/L, read-out: Activity
CCRF-CEM = assay: Anticancer activity against human CCRF-CEM cells assessed as cell growth at 10 umol/L incubated for 48 hrs by SRB assay relative to control; settings: dose 10 µmol/L, read-out: Activity
PC-3 = assay: Anticancer activity against human PC-3 cells assessed as cell growth at 10 umol/L incubated for 48 hrs by SRB assay relative to control; settings: PC-3, 48 h, dose 10 µmol/L, read-out: Activity
786-0 = assay: Anticancer activity against human 786-0 cells assessed as cell growth at 10 umol/L incubated for 48 hrs by SRB assay relative to control; settings: 786-0, 48 h, dose 10 µmol/L, read-out: Activity
IGROV-1 = assay: Anticancer activity against human IGROV-1 cells assessed as cell growth at 10 umol/L incubated for 48 hrs by SRB assay relative to control; settings: IGROV-1, 48 h, dose 10 µmol/L, read-out: Activity
K562 [2] = assay: Induction of apoptosis in human K562 cells at 0.5 uM incubated for 3 days by RNase/PI staining based flow cytometry (reference value: 1.4 %); settings: time 3 day
NCI-H522 = assay: Anticancer activity against human NCI-H522 cells assessed as cell growth at 10 umol/L incubated for 48 hrs by SRB assay relative to control; settings: NCI-H522, 48 h, dose 10 µmol/L, read-out: Activity
HCT-15 = assay: Anticancer activity against human HCT-15 cells assessed as cell growth at 10 umol/L incubated for 48 hrs by SRB assay relative to control; settings: HCT-15, 48 h, dose 10 µmol/L, read-out: Activity
SNB-75 = assay: Anticancer activity against human SNB-75 cells assessed as cell growth at 10 umol/L incubated for 48 hrs by SRB assay relative to control; settings: SNB-75, 48 h, dose 10 µmol/L, read-out: Activity
HCC 2998 = assay: Anticancer activity against human HCC 2998 cells assessed as cell growth at 10 umol/L incubated for 48 hrs by SRB assay relative to control; settings: HCC 2998, 48 h, dose 10 µmol/L, read-out: Activity
DU-145 = assay: Anticancer activity against human DU-145 cells assessed as cell growth at 10 umol/L incubated for 48 hrs by SRB assay relative to control; settings: DU-145, 48 h, dose 10 µmol/L, read-out: Activity
M14 = assay: Anticancer activity against human M14 cells assessed as cell growth at 10 umol/L incubated for 48 hrs by SRB assay relative to control; settings: M14, 48 h, dose 10 µmol/L, read-out: Activity
LOX IMVI = assay: Anticancer activity against human LOX IMVI cells assessed as cell growth at 10 umol/L incubated for 48 hrs by SRB assay relative to control; settings: dose 10 µmol/L, read-out: Activity
NCI-H226 = assay: Antiproliferative activity against human NCI-H226 cells assessed as mean cell growth at 10 uM incubated for 48 hrs by SRB assay relative to control

| SMILES | growth at 10 µM (HL-60(TB)) | growth at 10 µM (HT-29) | growth at 10 µM (MDA-MB-468) | growth at 10 µM (NCI-H322M) | growth at 10 µM (NCI-H460) | growth at 10 µM (SK-MEL-5) | growth at 10 µM (RPMI-8226) | growth at 10 µM (SF-295) | growth at 10 µM (SK-OV-3) | growth at 10 µM (A549) | growth at 10 µM (Malme-3M) | Activity (K562 [1]) | growth at 10 µM (MOLT-4) | growth at 10 µM (SN12C) | growth at 10 µM (Hs-578T) | growth at 10 µM (MCF7) | growth at 10 µM (ACHN) | growth at 10 µM (KM12) | growth at 10 µM (SF-268) | growth at 10 µM (CCRF-CEM) | further results |
| --- | --- | --- | --- | --- | --- | --- | --- | --- | --- | --- | --- | --- | --- | --- | --- | --- | --- | --- | --- | --- | --- |
| CCN1C(=O)N(CC)C2C1NN=c1s/c(=C\c3ccc(Cl)cc3Cl)c(=O)n12 (stereo not drawn) | 9.4% | 2.8% | 5.4% | 42.4% | 5.7% | 66.1% | 16.5% | -12.6% | 29.2% | 14.6% | 50.4% | 13% | 12.9% | 21.5% | 15.8% | 14% | 26.7% | 7.5% | 42.3% | -52.1% | growth at 10 µM (PC-3): 24.6%; growth at 10 µM (786-0): 20.6%; growth at 10 µM (IGROV-1): -43.3%; Activity (K562 [2]): 5%; growth at 10 µM (NCI-H522): -8.8%; growth at 10 µM (HCT-15): 9.5%; growth at 10 µM (SNB-75): 19.7%; growth at 10 µM (HCC 2998): 7.2%; growth at 10 µM (DU-145): 6%; growth at 10 µM (M14): 13.8%; growth at 10 µM (LOX IMVI): 18.3% |
| COc1cc2c(c(OC)c1OC)-c1ccc(OC)c(=O)cc1[C@@H](NC(C)=O)CC2 [COLCHICINE] | 13% | -29.9% | 70.5% | 36.1% | 2.9% | 30.7% | 2.3% | -10.6% | 36.1% | 44.9% | 39% | 18% | 6.7% | 46.8% | -7.1% | -9.6% | 30.5% | 3.7% | 35.1% | -38.2% | growth at 10 µM (PC-3): -28.6%; Activity (NCI-H226): 8%; growth at 10 µM (786-0): 15.4%; growth at 10 µM (IGROV-1): -49%; Activity (K562 [2]): 3.1%; growth at 10 µM (NCI-H522): -64.2%; growth at 10 µM (HCT-15): -16.8%; growth at 10 µM (SNB-75): 19.3%; growth at 10 µM (HCC 2998): -59%; growth at 10 µM (DU-145): 7.6%; growth at 10 µM (M14): 1.7%; growth at 10 µM (LOX IMVI): 26.5% |
